The conditions of data set [1]: high concentrations; cited from earlier work.
For a further data set, the system named is organ, e.g., a liver. The data set can be described thus: Removal and/or storage of organ in tagatose-containing organ storage solution (Examples 1-3). Set-up: species or system human. Particulars: tagatose solution containing about 0.36% by weight of tagatose, with nutrients and electrolytes. The source says:
After the organ, e.g., a liver is accessed by surgery on a human subject, three liters of chilled tagatose solution containing about 0.36% by weight of tagatose are used to flush the blood from it and to cool the organ while still on the body. The tagatose solution contains the amounts of nutrients and electrolytes common to present day storage solutions, such as Viaspan. […] The organ is then removed and placed into a chilled sterile container, holding more of the tagatose solution, for refrigerated storage until the transplant occurs. The ischemia time is shorter in this procedure than in Example 1. The donor organ is removed and perfused with tagatose solution containing about 0.36% by weight of tagatose that, again, contains the requisite nutrients and electrolytes. The organ is then placed into a sterile container that contains more of the same tagatose solution. That sterile container is placed into two more sterile containers and is then placed on ice for immediate transit to the organ recipient. The organ is removed as described in Example 1. It is flushed and perfused with tagatose solution, containing about 0.36% by weight of tagatose, and containing the requisite nutrients and electrolytes. The organ is placed in a sterile container with more of the same tagatose solution. Two protocols may be used for storage a. […]

For a further data set, the system named is liver cells. The data set can be described thus: Exposure of organ cells to tagatose, ATP level. Format: cell-based. The following applies: exposure of organ cells such as liver cells to tagatose.

As to `CC(=O)N(O)CCCCCNC(=O)CCC(=O)N(O)CCCCCNC(=O)CCC(=O)N(O)CCCCCN` [deferoxamine], in data set [1], the toxicity entry is “toxic at high concentrations”.

With `O=C(CO)[C@@H](O)[C@@H](O)[C@H](O)CO` [tagatose], in the data set on organ, e.g., a liver, the “reperfusion injury of the organ” value was “reduces reperfusion injury”. Moreover, in the data set on liver cells, the “ATP in organ cells” value is “massively decreases ATP”.

Source of the values: patent US6355409B1, “Tagatose as a cytoprotective supplement for the removal and/or storage of organs to reduce reperfusion injury” (Biospherics Incorporated, priority 2000, dated 2002).
